The target of one data set is iNOS (Mus musculus (Mouse), UniProt P29477). The data set can be described thus: iNOS protein expression, Western blot. The settings on record: LPS-stimulated Raw264.7; 12 μM, 25 μM, 50 μM. The format is cell-based. As for the experimental part: (§1) The cells were washed twice with cold PBS and lysed with RIPA buffer (Roche) containing a complete protease inhibitor cocktail. Protein concentration was quantified using the BCA protein assay kit (Pierce, IL, USA), and 30 μL of lysate was separated by 10% SDS-PAGE. The separated proteins were transferred to a polyvinylidene difluoride (PVDF) membrane (Biorad, CA, USA) at 70 mA for 1 hour and 30 minutes, then blocked with tris-buffered saline (TBST; pH 7.5) containing 50 mg/mL skim milk at room temperature for 2 hours. As antibodies to examine the expression levels of iNOS and pIKKαβ, anti-iNOS and pIKKαβ were used, diluted 1:1000 and reacted at room temperature for 2 hours, followed by washing three times with TBST. As secondary antibodies, horseradish peroxidase (HRP)-conjugated anti-mouse IgG and anti-rabbit IgG were diluted 1:2000 and reacted at room temperature for 1 hour, followed by washing three times with TBST. Peroxidase activity was detected using ECL-Plus according to the manufacturer's protocol.
(Immunoblotting shows a protein as a band on a membrane.)

A further data set deals with RAW 264.7 cells. The data set can be described thus: Cytotoxicity, CCK-8 assay. The settings on record: Raw264.7 cells; 12 μM, 25 μM, 50 μM. The class given is cell-based. As for the experimental part:
To evaluate the cytotoxicity of the sample, cell proliferation was tested using a cell counting kit [CCK-8; Dojindo Laboratories (Tokyo, Japan)]. RAW 264.7 cell 1×10^4 cells/mL were dispensed into a well plate, and after pre-culturing for 20 hours, […] of LPS and example compounds were added at different concentrations and cultured for 24 hours in an incubator at 37° C. and 5% CO2. After culturing, 10 μl CCK-8 reagent was added and recultured for 1 to 2 hours, and the absorbance was measured. The absorbance was measured at 450 nm using a microplate reader [BMG Labtech (located in Offenburg, Germany)].
In order to evaluate the cytotoxicity of the compound of Example 1, Raw264.7 cells, a macrophage cell line, were treated with the compound of Example 1 at concentrations of 0, 12 μM, 25 μM, and 50 μM, respectively, and then CCK8 assay was performed according to <Experiment Method> 3 above. […] Specifically, cell proliferation was similar to that of the vehicle group even at a concentration of up to 50 μM, and no significance was detected.

A further data set concerns the target pIKKαβ (Mus musculus (Mouse), UniProt O88351+Q60680). Put plainly: pIKKαβ protein expression, Western blot. The format is cell-based. The settings on record: LPS-stimulated Raw264.7; 12 μM, 25 μM, 50 μM. On the procedure:
as §1
Nuclear factor-kappa B (NF-κB), which plays an important role in inflammatory responses, is a transcription factor that regulates the synthesis of various cytokines, chemokines, and growth factors. […]

The subject of data set [1] is macrophage infiltration into carrageenan-injected sole. Put plainly: Macrophage tracking by fluorescence imaging in carrageenan-induced acute inflammation. The format is in vivo, mouse. The settings on record: C57BL/6 mice, 50 mg/kg oral, 6 hours after inducing inflammation, versus vehicle group. As for the experimental part:
2 mL of thioglycollate medium (BD, USA) was injected into the abdominal cavity of a C57Bl/6 mouse, and three days later, the mouse was cervically dislocated, and 8 mL of Dulbecco's modified Eagle's medium (DMEM) was injected into the abdominal cavity to collect cells. After centrifugation, the cells were suspended in DMEM containing 10% fetal bovine serum (FBS) and 1% penicillin-streptomycin and cultured in a 5% CO2 incubator at 37° C. for 2 hours. Non-adherent cells were removed, and the remaining cells were used for experiments.
The acute anti-inflammatory activity of the example compound was evaluated using a macrophage tracking technique with fluorescence imaging. Macrophages extracted from the mouse abdominal cavity were labeled with Vybrant™ DiD Cell-Labeling Solution and then administered to the mouse via intravenous injection. The next day, 50 mg/kg of the example compound was orally administered, and 1 hour later, a 0.1% Carrageenan (CG) solution or PBS was subcutaneously injected into the right or left sole of the mouse. Fluorescent images were obtained using IVIS Lumina III at the designated time.
The inflammation model induced by λ-carrageenan in the mouse foot region is an acute arthritis model and is useful when checking the effect of suppressing edema due to osteoarthritis. […]

The test system of data set [2] is LPS-stimulated Raw264.7 cells. The data set can be described thus: Nitric oxide (NO) production, Griess reagent. The format is cell-based. The settings on record: LPS-stimulated Raw264.7, 24 hours. On the procedure:
The concentration of NO was measured using the nitrite concentration in the culture medium with the Griess reagent system (Promega). Raw264.7 cells were adjusted to 2.5×10^5 cells/mL using DMEM medium, inoculated into 24-well plates, and pre-cultured for 20 hours in a 5% CO2 incubator. The cells were treated with […] of LPS and various concentrations of the example compounds and recultured for 24 hours. After obtaining the supernatant of the culture medium, the NO concentration was measured using the Griess reagent system according to the protocol provided by the manufacturer. The absorbance was measured at 540 nm using a microplate reader [BMG Labtech (located in Offenburg, Germany)]. The concentration of NO in the cell culture medium was calculated by comparing it with a standard curve for each concentration of sodium nitrite (NaNO2).
1 mg/mL lipopolysaccharide (LPS) and the compounds of Example 1 at concentrations of 0, 12 μM, 25 μM, and 50 μM were added to Raw264.7 cells, cultured for 24 hours, and changes in NO concentration in the upper layer of the culture were analyzed.
For orientation: Griess reagent forms a coloured azo dye with nitrite.

For another data set, the system named is NF-κB. The data set can be described thus: NF-κb promoter-luciferase assay. The format is cell-based. The settings on record: LPS-treated Raw264.7/NF-κb-luciferase cells; 12 μM, 25 μM, 50 μM. As for the experimental part: Raw264.7/NF-kb-luc cells were treated with 1 mg/mL LPS and various concentrations of compounds using the same method as used for measuring NO. 16 hours later, after adding the D-luciferin solution to the cells, luminescence images were obtained using the IVIS Lumina III. Quantification of the luminescence images was performed using Living Imaging software.
Nuclear factor-kappa B (NF-κB), which plays an important role in inflammatory responses, is a transcription factor that regulates the synthesis of various cytokines, chemokines, and growth factors. NFκB is composed of p50 and p65, enters the nucleus, acts as a transcription factor, and synthesizes iNOS, COX-2, and inflammation-related cytokines, and generally binds to the inhibitor NF-κBα (IκBα) in the cytoplasm, thereby inhibiting the action of NF-κB. In order to confirm whether NF-κb-related cell signaling induced in Raw264.7 cells was affected by the compound of Example 1, NF-κb promoter-luciferase analysis and pIKKαβ expression change analysis were performed in Raw264.7 cells using 1 mg/mL LPS and the compound of Example 1 at concentrations of 0, 12 μM, 25 μM, and 50 μM.

A further data set deals with IL-6. The data set can be described thus: IL-6 secretion, cytometric bead array. The class given is cell-based. The settings on record: LPS-stimulated Raw264.7, 24 hours; 12 μM, 25 μM, 50 μM. From the text: (§2) The supernatant was dispensed using the same method as used for measuring NO. High amounts of TNF-α and IL-6 in the supernatant were quantified using the multiplex bead-based immunoassay (BD™ Cytometric Bead Array) system and flow cytometry (BD Biosciences).
(§3) LPS, well known as an endotoxin present in the outer cell membrane of Gram-negative bacteria, stimulates macrophages or monocytes to promote the secretion of inflammatory cytokines such as tumor necrosis factor-α (TNF-α), interleukin-1l (IL-1), and interleukin-6 (IL-6). Accordingly, in order to analyze the effect of the compound of Example 1 on inhibiting cytokine secretion, RAW264.7 cells were cultured for 24 hours by adding 1 mg/mL of LPS and the compound of Example 1 at concentrations of 0, 12 μM, 25 μM, and 50 μM, and the concentrations of IL-6 and TNFα in the culture supernatant were measured.

The test system of the next data set is TNF-α. Put plainly: TNF-α secretion, cytometric bead array. The class given is cell-based. The settings on record: LPS-stimulated Raw264.7, 24 hours; 12 μM, 25 μM, 50 μM.
From the text: as §2, §3

For data set [3], the target named is PPARδ ligand-binding domain (LBD) (Homo sapiens (Human), UniProt Q03181). Put plainly: PPARδ activation, TR-FRET coactivator peptide recruitment (enzyme activity EC50). The class given is biochemical. The settings on record: GST-PPARδ LBD 5 nM, read-out: Enzymatic activity (EC50). For orientation: TR-FRET usually uses a lanthanide donor and a delayed reading to cut background.

SMILES strings stand for the structures.

Chain of PPARδ ligand-binding domain (LBD) (Q03181 211-439): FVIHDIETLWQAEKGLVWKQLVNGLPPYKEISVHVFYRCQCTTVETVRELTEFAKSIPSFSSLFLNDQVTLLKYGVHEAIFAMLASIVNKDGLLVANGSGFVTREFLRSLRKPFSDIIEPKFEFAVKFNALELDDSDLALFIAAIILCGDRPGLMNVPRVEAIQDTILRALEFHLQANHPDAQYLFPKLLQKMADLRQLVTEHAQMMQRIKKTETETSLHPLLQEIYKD

One may read the EC50 as the concentration needed to bring the measured effect to its halfway point. On to `Cc1cc(SCc2nnc(-c3ccc(C(F)(F)F)cc3)s2)ccc1OCC(=O)O` [Example 1, 2-(2-methyl-4-(((5-(4-(trifluoromethyl)phenyl)-1,3,4-thiadiazol-2-yl)methyl)thio)phenoxy)acetic acid], for which, at iNOS, the iNOS protein expression entry is “significantly suppressed”. For the same molecule, the “cytotoxicity (CCK8 assay, cell proliferation)” value in the data set on RAW 264.7 cells is reported as “no cytotoxicity at all concentrations”. Besides, at pIKKαβ, the pIKKαβ protein expression result is recorded as “effectively reduced”. For the same molecule, in [1], the “fluorescent signal of labeled macrophages in sole injected with 0.1% CG” value is given as “lower fluorescent signal”. For the same molecule, the figures for the NO concentration produced in data set [2] (compound 12.5 μM (0 μM control 22.8±1.3 μM)), in data set [2] (compound 25 μM (0 μM control 22.8±1.3 μM)) and in data set [2] (compound 50 μM (0 μM control 22.8±1.3 μM)) were 18.9 ± 0.3 µM, 14.8 ± 0.54 µM and 2.41 ± 0.24 µM, respectively. Further, the NF-κb-luciferase luminescent signals result in the data set with NF-κB is “decreased in a concentration-dependent manner”. The “production of IL-6” value with IL-6 is reported as “effectively inhibited”. Besides, the “production of TNFα” value in the data set on TNF-α was “effectively inhibited”. Moreover, in data set [3], the EC50 came to 39.9 nM.

(Values after patent US20250197363A1, “THIADIAZOLE COMPOUND, AND PHARMACEUTICAL COMPOSITION FOR PREVENTING OR TREATING INFLAMMATORY DISEASES, INCLUDING SAME” (Cureverse Incorporated, priority 2022, published 2025).)
